# Measured values from patent US9539221B2, “Method of treating airway diseases with β-adrenergic inverse agonists” (EGB ADVISORS, LLC, priority 2003, dated 2017).
# “Also recorded” adds a separate entry of the source. Read-outs that look alike come from different tables or passages of the source.
# Key:
# asthmatic mice [1] = assay: Airway resistance (Raw) response to methacholine provocation in murine model of asthma (forced oscillation); format: in vivo, Balb/cJ mice
# Procedure: Balb/cJ mice aged 6 weeks (Jackson Animal Laboratory, Bar Harbor, Me.) were housed under specific pathogen-free conditions and fed a chicken ovalbumin-free diet. The Animal Research Ethics Boards of both the University of Houston and the Baylor College of Medicine approved all experiments reported here. […] Mice were sensitized with subcutaneous injection of 25 μg of ovalbumin adsorbed to aluminum hydroxide on protocol days 2, 9, and 16. Subsequently, mice were given 50 μL of saline solution containing 25 μg of ovalbumin intranasally, on a daily basis, from protocol days 23 through 27. A group of ovalbumin-sensitized saline-challenged mice serves as controls for systemic sensitization and respiratory challenges with ovalbumin. Prior to intranasal administrations, mice were sedated with halothane vapor.
# To examine the effects of duration of β-adrenergic ligand therapy on the phenotype of the murine model of asthma, the experimental drugs were administered either acutely or chronically to different groups of asthmatic mice.
# Asthmatic mice on acute therapy were given a single intravenous bolus infusion of either β-adrenergic drug or normal saline on protocol day 28, 15 minutes before airway responsiveness to methacholine was determined. […] Asthmatic mice on chronic therapy were treated with the β-adrenergic drug during protocol days 1 to 28. […] These concentrations were chosen based on those producing therapeutic effects in mice in previously published studies. The non-asthmatic mice were fed normal chow.
# On protocol day 28, mice were anesthetized, tracheotomized, and connected to a computer-controlled small animal ventilator (Flexivent, Scientific Respiratory Equipment, Inc., Montreal, Canada). Airway resistance (Raw) was measured using the forced oscillation technique. The cellular composition of bronchoalveolar lavage fluid (BALF) was also determined.
# To induce airway constriction, a solution containing 150 μg/mL of acetyl-α-methylcholine chloride (methacholine) (Sigma Chemical, St. Louis, Mo.) was infused intravenously at constant rates using a syringe infusion pump (Raze Scientific Instruments, Stanford, Conn.). […] Each methacholine dose was administered for 3 to 5 minutes, during which data were sampled at 1-minute intervals and then averaged.
# The complex input impedance of the respiratory system was computed and the value of the real part of respiratory system impedance at 19.75 Hz was taken to reflect the magnitude of airway resistance (Raw). To examine the degree of airway responsiveness of each animal, the values for Raw as a function of methacholine doses were plotted. The largest value for Raw achieved in response to methacholine stimulation was referred to as Rawpeak. For mice that achieved a plateau in the methacholine dose-Raw response curve, the ED50 was calculated by linear interpolation using the GraphPad Prism4 (GraphPad Software, Inc.). […] The Bonferroni test was used to examine the statistical differences between experimental groups. The effects of acute drug treatments on baseline respiratory system mechanics were assessed using a two-tailed paired t-test. A value of P<0.05 was considered significant.
# For these experiments, salbutamol was used for chronic administration at 0.5 mg/kg/day with a minipump and for acute administration at 0.15 mg/kg by i.v. bolus 15 minutes prior to challenge. Alprenolol was used at a high dose of 7200 ppm in chow or at a low dose of 720 ppm in chow. Carvedilol was used at a high dose of 2400 ppm in chow or at a low dose of 720 ppm in chow.
# β2-adrenergic receptor [2] = target: β2-adrenergic receptor (Mus musculus, UniProt P18762); assay: β-adrenergic receptor density in lung membranes of treated asthmatic mice by ICYP radioligand binding; format: in vivo
# Procedure: (§1) β2-adrenergic receptor numbers were measured in asthmatic mice as follows. […] Mice were sacrificed and lung membranes were isolated as follows. Frozen lung tissue was homogenized in an ice-cold buffer containing 0.32 M sucrose and 25 mM Tris (pH 7.4) using a polytron (Pro 200, Pro Scientific, Inc.). The homogenate was centrifuged at 1000×g for 10 min at 4° C. The resulting supernatant was centrifuged at 40,000×g for 20 min at 4° C. The pellet was suspended in an ice-cold 25 mM Tris-HCl buffer (pH 7.4) and centrifuged at 40,000×g for 20 min at 4° C. The final pellet was suspended in 200 μL of 25 mM Tris-HCl (pH 7.4); membrane protein concentration was determined by BCA protein assay kit. […] The incubation was done at 37° C. for 2 h and terminated by rapid vacuum filtration through glass fiber filters. The filters were washed three times with 250 μL of cold wash buffer (25 mM Tris-HCl, pH 7.4) and the radioactivity determined in a counter. […] Receptor densities are expressed as femtomoles of sites per milligram of protein. Bmax is determined by nonlinear regression of the saturation binding curves.
# β2-adrenergic receptor [3] = assay: as above; format: in vivo; settings: 2 days of administration
# Procedure: as §1
# β2-adrenergic receptor [4] = assay: Immunohistochemistry of β2-adrenergic receptor levels in lung sections; format: in vivo, mice; settings: chronic treatment versus untreated animals; epifluorescent microscopy
# Procedure: The mice were sacrificed and the lungs excised. […] Lungs were embedded in OCT and 12-μm sections cut with a Tissue-Tek II cryostat. […] After 3 washes in PBS, the slides were blocked with 5% milk in PBS for 1 h, and then incubated overnight with anti-β2-adrenergic receptor antibody (1:200, Santa Cruz Biotechnology) in blocking solution. Slides were washed in PBS and incubated with secondary antibody (1:200, Cy3 goat anti-rabbit, 16 h at 4° C.). […] After washing with PBS, coverslips were mounted and viewed by epifluorescent microscopy.
# [5] = test system: sensitized and allergen-challenged mice; assay: Acute nadolol with aminophylline, methacholine-induced bronchoconstriction; format: in vivo; settings: nadolol 0.72 mg/kg i.p. 15 minutes prior to methacholine challenge
# Procedure: Mice were sensitized to the allergen ovalbumin as described in Example 1. […] At time point 1 (time=−10 min) baseline airway resistance of the mice was determined. At time point 2 (time=−5 min) methacholine was infused into mice to reach their EC70.
# Phospholipase C (PLC-β1) = assay: Ratio of phospholipase C to actin by immunoblotting in cultured tracheal smooth muscle cells of treated mice; format: cell-based; settings: asthmatic mice, chronic nadolol high dose treatment
# Excerpt: Cultured tracheal smooth muscle cells were obtained from mice exposed to the following treatments: NS/NC=nonasthmatic, non-challenged mice; S/C=asthmatic mice; Sal.Ac=asthmatic mice, acute salbutamol treatment; Sal.Ch=asthmatic mice, chronic salbutamol treatment; Nad.Ac=asthmatic mice, acute nadolol high dose treatment; and Nad.Ch=asthmatic mice, chronic nadolol high dose treatment.
# After airway function experiments, the trachea were surgically removed from anesthetized mice that had been treated with drugs or vehicle. The trachea was minced and the cells plated and grown in culture. The smooth muscle cells grow faster and take over the culture dish. The cells were grown in medium which contained the drugs used in the treatment or vehicle controls. Phospholipase C (PLC-β1) was determined by immunoblotting with an antibody specific for the enzyme. Actin was used as a loading control and the amount of PLC-β1 was expressed as a ratio to actin.
# The phospholipase C protein level was measured in these cultured cells and compared with the level of the structural protein actin as a baseline. The enzyme phospholipase C plays a key role in the pathway leading to asthmatic symptoms, as it cleaves a phosphodiester bond in membrane phospholipids, resulting in the formation of a 1,2-diglyceride. […]
# asthmatic mice [6] = settings: same mouse asthma model, Callaerts-Vegh et al. 2004, cited from earlier work
# Chain of β2-adrenergic receptor (Mus musculus, UniProt P18762) (P18762 whole entry): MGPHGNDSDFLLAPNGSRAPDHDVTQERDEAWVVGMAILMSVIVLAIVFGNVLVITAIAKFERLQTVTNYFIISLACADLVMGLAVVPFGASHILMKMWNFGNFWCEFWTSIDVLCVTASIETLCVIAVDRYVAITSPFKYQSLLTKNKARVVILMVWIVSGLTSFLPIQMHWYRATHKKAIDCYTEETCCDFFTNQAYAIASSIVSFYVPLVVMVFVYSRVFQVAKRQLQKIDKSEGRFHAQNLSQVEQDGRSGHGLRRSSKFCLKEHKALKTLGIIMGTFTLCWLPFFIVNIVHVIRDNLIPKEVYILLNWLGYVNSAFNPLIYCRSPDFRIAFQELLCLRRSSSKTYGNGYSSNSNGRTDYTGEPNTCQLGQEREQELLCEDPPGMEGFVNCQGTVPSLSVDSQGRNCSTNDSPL
smiles,measurement,setting,value
"CC(C)(C)NCC(O)COc1cccc2c1CC(O)C(O)C2 (centres unmarked) [Nadolol, nadolol]",airway resistance (Raw),asthmatic mice [1]; 1 ppm in chow,identical to the untreated mice
same,"airway responsiveness to methacholine provocation (airway resistance, Raw)","asthmatic mice [1]; asthmatic mice, chronic: 28 days (chow; salbutamol by osmotic minipump)","produced a decrease in airway responsiveness, which was more pronounced than that caused by carvedilol treatment; also recorded: reduced the responsiveness of asthmatic mice to methacholine provocation"
same,protection from airway hyperresponsiveness,"asthmatic mice [1]; chronic administration, high and low dose in chow (Example 6)",providing protection from airway hyperresponsiveness
same,Bmax (β-adrenergic receptor density),"β2-adrenergic receptor [2]; 15 Minutes drug treatment, lung membranes of asthmatic mice, mean±SEM",181.9 ± 48.28 femtomoles of sites per milligram of protein
same,βmax (β-adrenergic receptor density),"β2-adrenergic receptor [2]; 28 Days drug treatment, lung membranes of asthmatic mice, mean±SEM",785.5 ± 154.8 femtomoles of sites per milligram of protein
same,Increased β2AR density,β2-adrenergic receptor [2]; 28 days of administration,showed an increase in receptor density
same,increase of the level of β2-adrenergic receptors over the non-treated mice,"β2-adrenergic receptor [2]; chronic administration, versus untreated methacholine-challenged asthmatic mice",nearly eightfold increase
same,Increased β2AR density,β2-adrenergic receptor [3],yes
same,Increased β2AR density,β2-adrenergic receptor [3]; listed as nadolol,showed an increase in receptor density
same,labeling with anti-β2-adrenergic receptor antibodies in lungs,β2-adrenergic receptor [4],considerably more intense; also recorded: increase in β-adrenergic receptor density
same,baseline airway resistance,[5],same baseline airway resistance as non-drug treated sensitized and allergen-challenged mice
same,ratio of phospholipase C to actin,Phospholipase C (PLC-β1),significantly decreases the activity of phospholipase C
same,airway hyperresponsiveness,asthmatic mice [6]; administered acutely,worsens airway hyperresponsiveness
same,airway hyperresponsiveness,asthmatic mice [6]; administered chronically,prevents airway hyperresponsiveness
